Laboratory results taken from patent publication US20130096123A1, “RADIATION SENSITISER COMPOSITIONS” (EUPHARMA PTY LTD, priority 2010, published 2013).
Converted amounts (≈) assume the structure as drawn.

Assays:
physchem = format: physicochemical
Method: A large number of these exist but in this formulation Hydroxypropyl beta Cyclodextrin (HPbCD) is used. HPbCD also assists masking the taste of the drug.
A solubility increase of above 10 fold is achieved and the room temperature solubility of nimorazole may be increased to the more dose convenient level of 100 mg/ml.
HPbCD complexes with nimorazole over a wide molar ratio, in this example the lower ratio of […] is used, therefore 226 g of nimorazole is used with 1400 g of HPbCD.

[1] = cited from earlier work

For `O=[N+]([O-])c1cncn1CCN1CCOCC1` [Nimorazole, nimorazole], the solubility increase (physchem) is given as “above 10 fold”, the solubility (physchem; aqueous with cosolvent or surfactant or cyclodextrin) is given as 100 mg/mL (≈ 442 mM) and the pKa [1] is given as 5.2.
